Results taken from patent US20240025953A1, “COMPOSITIONS AND METHODS FOR INHIBITING ALPHA-SYNUCLEIN AGGREGATION” (Seelos Therapeutics, Inc., priority 2020, published 2024).
Like-named read-outs stand apart in the source and are kept apart here. Ends that are not written are not given here.

Assays:
Type in all cases: in vitro ADME
[1] = Permeability in a Caco-2 assay; settings: human; for efflux ratio at 10 μM: read-out: Mean (B-A/A-B) Efflux Ratio
Description: (§1) Permeability of the S62 and S71 peptides were assessed in a Caco-2 assay using methanol.
(§2) Permeability Ranking: lower is <1×10−6 cm/s; higher is >1×10-6 cm/s.

[2] = Stability in rat plasma; settings: in vitro in rat plasma, 1% TCA and methanol as quenchers
Description: S62 and S71 peptides (SEQ ID NOs: 3 and 4, respectively) were incubated in vitro in rat plasma with 1% TCA and methanol as quenchers for a period of time calculated to be reflective of the amount of time the peptides would be subject to in vivo conditions if administered to rats.

[3] = test system: Caco-2; assay: Permeability in a Caco-2 assay; settings: Caco-2 assay using methanol
Description: as §1, §2

[4] = Caco-2, Assay Conc. 10 μM, without verapamil
[5] = Caco-2, Assay Conc. 10 μM, without verapamil, read-out: Mean A-B % Recovery
[6] = Caco-2, Assay Conc. 10 μM, without verapamil, read-out: Mean B-A % Recovery
[7] = Caco-2, with Verapamil 25 uM, Assay Conc. 10 μM, with Verapamil 25 uM, read-out: Mean A-B % Recovery
[8] = Caco-2, with Verapamil 25 uM, Assay Conc. 10 μM, with Verapamil 25 uM, read-out: Mean B-A % Recovery

Row | Molecule | Papp A→B at 10 μM [1, 4] [×10⁻⁶ cm/s] | Papp B→A at 10 μM [1, 4] [×10⁻⁶ cm/s] | efflux ratio at 10 μM [1, 4] | recovery at 10 μM [1, 5] [%] | recovery at 10 μM [1, 6] [%] | recovery of the peptides after incubation in rat plasma [2] | recovery at 10 μM [1, 7] [%] | recovery at 10 μM [1, 8] [%] | Permeability (in words) [3]
1 | CNC(=C[N+](=O)[O-])NCCSCc1ccc(CN(C)C)o1 [Ranitidine, reference compound] | 0.391 | 1.03 | 2.65 | 87.1 | 95.2 | – | – | – | –
2 | CC(=O)CC(c1ccccc1)c1c(O)c2ccccc2oc1=O (stereo not shown) [Warfarin, reference compound] | 36.8 | 33.8 | 0.917 | 93 | 93.4 | – | – | – | –
3 | GAVVWGVTAVKK [S62, GAVVWGVTAVKK] | – | – | – | 70.1 | 92.5 | not high enough to detect | 59.7 | 91.3 | neither of the peptides exhibited permeability
4 | RAVVTGVTAVAE [S71, RAVVTGVTAVAE] | – | – | – | 91.4 | 74.7 | not high enough to detect | 80.7 | 92.7 | neither of the peptides exhibited permeability
